Measurements as given in patent US9428465B2, “Acid ceramidase inhibitors and their use as medicaments” (FONDAZIONE ISTITUTO ITALIANO DI TECHNOLOGIA, priority 2012, dated 2016).
pIC50: −log10 of the molar value.

Legend:
[1] = molecular target: rat acid ceramidase (rAC) (Rattus norvegicus (Rat), UniProt Q6P7S1); assay: Rat acid ceramidase (rAC) enzymatic assay, LC/MS of lauric acid; type: biochemical; settings: rat acid ceramidase, 100 μM N-lauroyl ceramide, pH 4.5
Method: A lysosomal rat acid ceramidase (rAC) protein preparation was obtained from cells stably expressing rAC resuspended in 20 mM Tris HCl (pH 7.5) with 0.32 M sucrose. Samples were sonicated and centrifuged at 800×g for 15 min at 4° C. Supernatants were then centrifuged at 12,000×g for 30 min at 4° C. Pellets were re-suspended in PBS pH 7.4 and subjected to 2 freeze-thaw cycles at −80° C. The suspension was finally centrifuged at 105,000×g for 1 hr at 4° C. and the supernatant containing rAC was then used in the enzymatic assay.
r-AC protein samples were pre-incubated with various concentrations of test compounds or vehicle control in 100 mM NaH2PO4/citrate buffer pH 4.5, 0.1% Nonidet P-40, 3 mM DTT for 30 min at 37° C. Samples were incubated with 100 μM N-lauroyl ceramide (Nu-Chek Prep, Elysian, Minn.) at 37° for 30 min. The reaction was stopped by addition of a mixture of chloroform/methanol (2:1 vol/vol) containing 1 nmol of heptadecanoic acid (HDA; NuChek Prep). The organic phases were collected, dried under nitrogen, and analyzed by LC/MS in the negative-ion mode using heptadecanoic acid (HDA) as internal standard (m/z=199 for lauric acid, m/z=269 for HDA). HDA was eluted on an XDB Eclipse C18 column isocratically at 2.2 mL/min for 1 min with a solvent mixture of 95% methanol and 5% water, both containing 0.25% acetic acid, and 5 mM ammonium acetate. The column temperature was 50° C. Electrospray ionization (ESI) was in the negative mode, capillary voltage was 4 kV, and fragmentor voltage was 100 V. Nitrogen was used as drying gas at a flow rate of 13 L/min and at a temperature of 350° C. Nebulizer pressure was set at 60 psi. We monitored [M-H]− in the selected-ion monitoring (SIM) mode using HDA as internal standard.
Inhibition of rAC activity was calculated as a reduction of lauric acid in the samples compared to vehicle controls. Median inhibitory concentration (IC50) values were calculated by non-linear regression analysis of log [concentration]/inhibition curves using. GraphPad Prism 5 (GraphPad Software, Inc., CA, USA) applying a standard slope curve fitting.

SW403 cells [2] = assay: Isobolographic analysis of combined treatment of SW403 cells (ED50, trypan blue assay); type: cell-based, human
Method: Interaction between drugs was assessed by isobolographic analysis, based on the concept of dose-equivalence which follows from the dose effect curves of the individual drugs (Tallarida R I, Interactions between drugs and occupied receptors. Pharmacol. Ther. 2007, 113, 197-209; Tallarida R J, Raffa R B, The application of drug dose equivalence in the quantitative analysis of receptor occupation and drug combinations. Pharmacol. Ther. 2010; 127, 165-174). Specifically, the individual drugs' potency and efficacy allow calculating the expected effect of a combination of the two drugs.
In the experiment of combined treatment, isobolograms were constructed by plotting on vertical and horizontal axes the ED50 data of the single drugs measured by trypan blue assay after subcronic treatment for 72 hrs. The straight line with axial intercepts represents the isobole of additivity and allows calculating the theoretical additive dose. Synergism is indicated by an observed pair (x, y) that plots below the isobole for the specified effect, whereas sub-additivity is indicated when an observed pair (x, y) plots above the isobole.

SW403 cells [3] = assay: SW403 cell viability, trypan blue assay; type: cell-based, human; settings: prolonged (72 hrs) treatment, concentration-response, FIGS. 2A and 2B
Method: Cells were seeded in 12- or 96-well plates in complete medium 24 hrs before treatment and then incubated for 24 hrs (single treatment) or 72 hrs (multiple treatments) with different drug concentrations in media without serum. Cell viability was then evaluated.
The trypan blue exclusion assay is based on the principle that viable cells have intact cell membrane and can therefore exclude the trypan blue dye. Cell viability was measured after 24 hrs incubation with the drug. Cells were harvested, centrifuged at 1200 rpm for 10 min and pellets re-suspended in PBS. To evaluate viability, cells were diluted 1:1 with 0.4% trypan blue dye (Sigma), incubated for 1 min and white (viable) cells were counted with a hemacytometer.

[4] = SW403 cells, 72 hrs, isobole of additivity, higher than the experimental values

Sequence of rat acid ceramidase (rAC) (Q6P7S1 142-394): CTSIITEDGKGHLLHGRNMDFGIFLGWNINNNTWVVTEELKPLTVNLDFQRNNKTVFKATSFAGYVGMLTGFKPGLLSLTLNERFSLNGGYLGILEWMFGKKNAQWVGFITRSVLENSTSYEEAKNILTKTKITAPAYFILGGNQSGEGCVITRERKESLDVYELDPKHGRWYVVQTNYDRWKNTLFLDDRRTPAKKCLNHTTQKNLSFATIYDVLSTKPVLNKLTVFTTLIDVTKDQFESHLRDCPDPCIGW
Sequence of rat acid ceramidase (rAC) (Q6P7S1 21-141): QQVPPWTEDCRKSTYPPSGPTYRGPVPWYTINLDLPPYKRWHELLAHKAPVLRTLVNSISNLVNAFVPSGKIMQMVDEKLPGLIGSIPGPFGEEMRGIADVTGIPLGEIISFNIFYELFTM

CCCCCCNC(=O)n1cc(Br)c(=O)[nH]c1=O [Example 5, 5-bromo-N-hexyl-2,4-dioxo-pyrimidine-1-carboxamide]
pIC50 [1]: 7.29
theoretical dose (Th) to be used with 20 nM taxol to obtain an additive effect (SW403 cells [2]; [4]): 9.5 µM
theoretical dose (Th) to be used with 300 nM 5FU to obtain an additive effect (SW403 cells [2]; [4]): 14.9 µM
interaction with taxol in reducing viability of SW403 cells (isobologram) (SW403 cells [2]; prolonged treatment, 20 nM taxol, trypan blue ED50): synergistic effect
interaction with 5-fluorouracil in reducing viability of SW403 cells (isobologram) (SW403 cells [2]; prolonged treatment, 300 nM 5FU, trypan blue ED50): synergistic effect
SW403 cell viability (trypan blue assay) (SW403 cells [3]): reduction of the viability
